Reference: US8785457B2 (Cellzome Limited, priority 2009, dated 2014)
Structures can show the parent of a compound that is named as a salt. Where two headings read alike, the source gives them in different places.

Tests used:
mTOR = molecular target: T1, mTOR (Homo sapiens, UniProt P42345); test: mTOR kinobeads assay (competitive binding in Jurkat cell lysate, immunodetection)
T1 construct: endogenous in cells; host or cells: Jurkat, clone E6-1 (ATCC TIB-152) cell lysate
Summary of the method: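 IC50 derived from dose-response curves of mTOR captured on immobilized phenylmorpholin-chromen beads, detected by antibody dot blot with infrared fluorescence.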

PI3K delta (PI3 Kd) = molecular target: T2, PI3K delta (PI3 Kd) (Homo sapiens, UniProt O00329); test: kinobeads assay, PI3K delta; type: binding
T2 construct: endogenous in cells; host or cells: Jurkat, clone E6-1 (ATCC TIB-152) cell lysate
T2 sequence (O00329 whole entry): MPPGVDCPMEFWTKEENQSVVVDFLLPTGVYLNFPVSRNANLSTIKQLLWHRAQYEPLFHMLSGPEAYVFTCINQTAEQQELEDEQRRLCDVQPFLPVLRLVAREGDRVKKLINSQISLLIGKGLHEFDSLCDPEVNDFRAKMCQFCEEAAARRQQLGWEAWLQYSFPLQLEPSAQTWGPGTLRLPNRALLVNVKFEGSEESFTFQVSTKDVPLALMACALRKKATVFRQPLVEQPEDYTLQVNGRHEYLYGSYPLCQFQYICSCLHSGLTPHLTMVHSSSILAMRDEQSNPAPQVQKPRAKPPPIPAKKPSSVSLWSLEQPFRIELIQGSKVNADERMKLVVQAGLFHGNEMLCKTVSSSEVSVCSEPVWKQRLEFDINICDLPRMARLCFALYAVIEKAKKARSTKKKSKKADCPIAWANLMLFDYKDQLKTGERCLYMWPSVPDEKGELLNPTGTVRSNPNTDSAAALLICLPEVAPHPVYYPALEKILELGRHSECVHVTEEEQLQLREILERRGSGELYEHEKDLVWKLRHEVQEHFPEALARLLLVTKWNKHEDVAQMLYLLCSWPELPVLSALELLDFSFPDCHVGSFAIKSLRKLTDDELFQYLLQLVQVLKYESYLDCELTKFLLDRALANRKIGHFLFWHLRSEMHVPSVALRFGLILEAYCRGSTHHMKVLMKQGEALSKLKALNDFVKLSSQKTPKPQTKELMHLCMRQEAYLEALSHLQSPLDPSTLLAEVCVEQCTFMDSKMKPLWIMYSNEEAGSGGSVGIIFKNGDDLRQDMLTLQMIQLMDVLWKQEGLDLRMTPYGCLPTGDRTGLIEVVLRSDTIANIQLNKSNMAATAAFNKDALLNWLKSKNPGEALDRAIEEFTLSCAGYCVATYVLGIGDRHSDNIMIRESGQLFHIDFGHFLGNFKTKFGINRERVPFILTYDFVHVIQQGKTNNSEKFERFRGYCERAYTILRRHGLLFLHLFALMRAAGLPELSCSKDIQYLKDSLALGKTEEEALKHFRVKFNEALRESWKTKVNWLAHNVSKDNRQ
T2 sequence (P27986 whole entry partner): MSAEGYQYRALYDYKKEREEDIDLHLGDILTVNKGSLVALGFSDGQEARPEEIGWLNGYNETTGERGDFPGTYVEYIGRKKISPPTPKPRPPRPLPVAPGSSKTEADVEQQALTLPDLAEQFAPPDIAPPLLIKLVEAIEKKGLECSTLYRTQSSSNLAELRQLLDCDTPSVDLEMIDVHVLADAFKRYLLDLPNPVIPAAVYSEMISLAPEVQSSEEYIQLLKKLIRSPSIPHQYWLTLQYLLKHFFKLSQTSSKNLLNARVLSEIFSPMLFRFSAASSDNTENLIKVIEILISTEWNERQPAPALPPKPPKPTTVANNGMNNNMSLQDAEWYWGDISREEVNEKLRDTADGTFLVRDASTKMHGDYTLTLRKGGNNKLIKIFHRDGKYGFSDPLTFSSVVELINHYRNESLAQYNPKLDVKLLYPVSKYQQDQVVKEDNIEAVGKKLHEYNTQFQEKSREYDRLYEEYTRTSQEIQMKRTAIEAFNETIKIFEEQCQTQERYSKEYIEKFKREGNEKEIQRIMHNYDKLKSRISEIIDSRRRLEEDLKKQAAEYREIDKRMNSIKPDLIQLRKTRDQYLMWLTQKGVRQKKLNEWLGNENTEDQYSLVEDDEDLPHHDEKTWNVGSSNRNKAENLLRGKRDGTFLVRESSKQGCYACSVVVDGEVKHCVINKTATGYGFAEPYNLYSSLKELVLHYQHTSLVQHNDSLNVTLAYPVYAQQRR
Summary of the method: (§1)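 Competitive binding in Jurkat cell lysate (5 mg/mL protein) against beads carrying an immobilized phenylmorpholin-chromen ligand, in DP buffer pH 7.4 with NP40, DTT and NaF. Bead-bound kinases were eluted and quantified by antibody dot blot with infrared detection, and IC50 was taken from dose-response curves of a 1:3 dilution series.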

[1] = molecular target: T3, DNA-dependent protein kinase (DNA-PK) (Homo sapiens, UniProt P78527); test: kinobeads assay, DNA-PK; type: binding
T3 construct: endogenous in cells; host or cells: Jurkat, clone E6-1 (ATCC TIB-152) cell lysate
Summary of the method: as §1

PI3Kalpha (PI3Ka) = molecular target: T4, PI3Kalpha (PI3Ka) (Homo sapiens, UniProt P42336); test: kinobeads assay, PI3Kalpha; type: binding
T4 construct: endogenous in cells; host or cells: cell lysate
T4 sequence (P42336 whole entry): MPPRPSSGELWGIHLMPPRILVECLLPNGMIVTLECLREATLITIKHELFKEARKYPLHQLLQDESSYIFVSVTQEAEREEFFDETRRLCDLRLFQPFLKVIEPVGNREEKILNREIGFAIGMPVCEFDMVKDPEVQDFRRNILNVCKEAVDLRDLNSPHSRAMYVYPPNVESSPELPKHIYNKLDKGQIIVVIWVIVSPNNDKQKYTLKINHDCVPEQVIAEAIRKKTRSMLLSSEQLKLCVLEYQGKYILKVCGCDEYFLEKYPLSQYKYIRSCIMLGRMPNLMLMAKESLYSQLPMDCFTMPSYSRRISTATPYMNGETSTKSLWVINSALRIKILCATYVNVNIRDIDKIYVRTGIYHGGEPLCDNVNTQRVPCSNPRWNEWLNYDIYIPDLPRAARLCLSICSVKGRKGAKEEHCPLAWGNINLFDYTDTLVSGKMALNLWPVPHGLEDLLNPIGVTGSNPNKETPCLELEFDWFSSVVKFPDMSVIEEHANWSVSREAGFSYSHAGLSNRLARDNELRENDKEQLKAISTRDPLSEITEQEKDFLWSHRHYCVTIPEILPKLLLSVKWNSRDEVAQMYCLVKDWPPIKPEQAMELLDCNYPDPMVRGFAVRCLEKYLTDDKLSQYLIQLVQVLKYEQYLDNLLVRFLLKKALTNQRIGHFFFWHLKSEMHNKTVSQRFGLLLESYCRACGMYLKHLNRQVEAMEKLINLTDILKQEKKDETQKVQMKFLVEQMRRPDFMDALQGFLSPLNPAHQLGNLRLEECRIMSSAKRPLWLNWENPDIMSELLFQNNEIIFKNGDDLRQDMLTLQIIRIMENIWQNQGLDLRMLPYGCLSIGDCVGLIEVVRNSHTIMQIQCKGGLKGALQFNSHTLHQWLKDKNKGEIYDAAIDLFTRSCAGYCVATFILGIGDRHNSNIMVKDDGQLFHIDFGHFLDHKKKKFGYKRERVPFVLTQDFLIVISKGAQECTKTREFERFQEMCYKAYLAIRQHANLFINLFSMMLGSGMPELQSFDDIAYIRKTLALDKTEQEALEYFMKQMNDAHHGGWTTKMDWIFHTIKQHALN
T4 sequence (P27986 whole entry partner): as the sequence (P27986 whole entry partner) above
Protocol: (§2) The kinobeads assay was performed as a competitive binding assay in which test compounds were added directly into a cell lysate. Test compounds (at various concentrations) and the affinity matrix (beads with immobilized phenylmorpholin-chromen ligand) were added to cell lysate aliquots and allowed to bind to the proteins contained in the lysate sample. After the incubation time the beads with captured proteins were separated from the lysate. Bound proteins were then eluted and the presence of kinases was detected and quantified using a multiplexed immunodetection format. Dose response curves for individual kinases were generated and IC50 values calculated.
(§3) The effect of the compounds on the kinases PI3Kalpha (PI3Ka), PI3 Kbeta (PI3 Kb) and PI3 Kgamma (PI3 Kg) were tested in the kinobeads assay as described (WO-A 2009/098021).

PI3 Kbeta (PI3 Kb) = molecular target: T5, PI3 Kbeta (PI3 Kb) (Homo sapiens, UniProt P42338); test: kinobeads assay, PI3Kbeta; type: binding
T5 construct: endogenous in cells; host or cells: cell lysate
T5 sequence (P42338 whole entry): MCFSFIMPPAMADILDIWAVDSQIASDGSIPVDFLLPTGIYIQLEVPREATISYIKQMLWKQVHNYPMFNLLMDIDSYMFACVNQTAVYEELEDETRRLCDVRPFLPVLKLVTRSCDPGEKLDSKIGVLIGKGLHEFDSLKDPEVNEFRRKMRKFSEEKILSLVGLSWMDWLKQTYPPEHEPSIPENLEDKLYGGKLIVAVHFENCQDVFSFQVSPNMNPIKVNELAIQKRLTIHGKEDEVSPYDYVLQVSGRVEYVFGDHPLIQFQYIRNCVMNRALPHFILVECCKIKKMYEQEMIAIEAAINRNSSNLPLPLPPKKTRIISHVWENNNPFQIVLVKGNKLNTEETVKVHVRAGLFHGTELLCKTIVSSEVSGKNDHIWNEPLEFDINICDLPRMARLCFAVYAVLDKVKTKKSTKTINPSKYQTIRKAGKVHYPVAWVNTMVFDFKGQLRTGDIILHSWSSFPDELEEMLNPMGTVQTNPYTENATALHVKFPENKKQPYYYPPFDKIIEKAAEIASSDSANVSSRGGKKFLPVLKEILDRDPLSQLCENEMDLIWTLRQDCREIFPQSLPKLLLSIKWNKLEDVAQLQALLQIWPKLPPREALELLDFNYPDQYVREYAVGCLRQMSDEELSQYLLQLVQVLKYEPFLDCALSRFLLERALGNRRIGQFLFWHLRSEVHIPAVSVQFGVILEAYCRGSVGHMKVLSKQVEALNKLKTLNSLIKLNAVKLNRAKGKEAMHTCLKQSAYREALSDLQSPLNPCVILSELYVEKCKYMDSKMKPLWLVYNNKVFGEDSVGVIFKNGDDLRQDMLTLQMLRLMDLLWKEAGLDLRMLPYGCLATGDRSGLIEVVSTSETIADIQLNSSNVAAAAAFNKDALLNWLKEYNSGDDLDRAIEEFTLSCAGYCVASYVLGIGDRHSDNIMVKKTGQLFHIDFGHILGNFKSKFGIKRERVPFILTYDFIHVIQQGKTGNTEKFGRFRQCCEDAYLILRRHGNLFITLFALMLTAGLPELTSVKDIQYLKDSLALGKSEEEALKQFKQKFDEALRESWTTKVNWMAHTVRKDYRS
T5 sequence (P27986 whole entry partner): as the sequence (P27986 whole entry partner) above
Protocol: as §2, §3

PI3 Kgamma (PI3 Kg) = molecular target: T6, PI3 Kgamma (PI3 Kg) (Homo sapiens, UniProt P48736); test: kinobeads assay, PI3Kgamma; type: binding
T6 construct: endogenous in cells; host or cells: cell lysate
T6 sequence (P48736 whole entry): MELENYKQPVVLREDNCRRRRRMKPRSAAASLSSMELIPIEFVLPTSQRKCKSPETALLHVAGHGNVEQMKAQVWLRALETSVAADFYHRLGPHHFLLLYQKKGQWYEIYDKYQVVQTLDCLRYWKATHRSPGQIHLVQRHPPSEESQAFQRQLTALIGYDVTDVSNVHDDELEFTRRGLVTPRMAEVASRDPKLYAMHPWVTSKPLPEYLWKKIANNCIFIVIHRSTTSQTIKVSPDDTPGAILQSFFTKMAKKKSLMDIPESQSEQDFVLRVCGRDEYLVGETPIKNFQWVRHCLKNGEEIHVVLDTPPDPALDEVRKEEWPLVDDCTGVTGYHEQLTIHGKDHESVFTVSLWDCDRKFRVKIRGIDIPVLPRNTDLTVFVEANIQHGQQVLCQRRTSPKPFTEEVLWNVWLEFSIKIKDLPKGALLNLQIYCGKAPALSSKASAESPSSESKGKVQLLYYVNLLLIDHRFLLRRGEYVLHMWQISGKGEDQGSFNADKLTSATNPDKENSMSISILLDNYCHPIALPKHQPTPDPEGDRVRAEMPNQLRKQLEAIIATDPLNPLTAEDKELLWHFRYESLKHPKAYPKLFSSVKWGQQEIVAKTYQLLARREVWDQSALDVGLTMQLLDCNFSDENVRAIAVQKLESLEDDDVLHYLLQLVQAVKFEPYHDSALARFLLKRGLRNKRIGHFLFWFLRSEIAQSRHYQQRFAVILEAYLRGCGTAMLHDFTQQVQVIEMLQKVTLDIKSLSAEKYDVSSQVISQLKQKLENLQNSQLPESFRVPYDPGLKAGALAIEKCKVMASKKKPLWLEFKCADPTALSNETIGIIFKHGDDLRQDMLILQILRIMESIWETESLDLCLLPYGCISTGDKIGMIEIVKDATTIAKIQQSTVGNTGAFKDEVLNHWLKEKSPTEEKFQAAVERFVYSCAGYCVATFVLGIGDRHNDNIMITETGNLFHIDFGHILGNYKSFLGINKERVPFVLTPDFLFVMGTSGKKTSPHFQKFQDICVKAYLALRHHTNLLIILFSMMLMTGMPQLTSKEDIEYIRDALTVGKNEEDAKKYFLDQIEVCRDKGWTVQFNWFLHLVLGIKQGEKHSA
Protocol: as §2, §3

[2] = kinobeads assay, Table 6, read-out: Inhibition values (IC50) mTOR
[3] = kinobeads assay, Table 6, read-out: Inhibition values (IC50) PI3Kd
[4] = kinobeads assay, Table 6, read-out: Inhibition values (IC50) DNAPK
[5] = kinobeads assay, Table 6, read-out: Inhibition values (IC50) PI3Ka
[6] = kinobeads assay, Table 6, read-out: Inhibition values (IC50) PI3Kb
[7] = kinobeads assay, Table 6, read-out: Inhibition values (IC50) PI3Kg
[8] = Further Kinobeads Data, read-out: mTor
[9] = Further Kinobeads Data, read-out: PI3Kd
[10] = Further Kinobeads Data, read-out: DNAPK
[11] = Further Kinobeads Data, read-out: PI3Kb
[12] = Further Kinobeads Data, read-out: PI3Kg

Compound | IC50 (mTOR; [2]) | IC50 (PI3K delta (PI3 Kd); [3]) | IC50 [1, 4] | IC50 (PI3Kalpha (PI3Ka); [5]) | IC50 (PI3 Kbeta (PI3 Kb); [6]) | IC50 (PI3 Kgamma (PI3 Kg); [7]) | IC50 (mTOR; [8]) | IC50 (PI3K delta (PI3 Kd); [9]) | IC50 [1, 10] | PI3Ka (PI3Kalpha (PI3Ka); Further Kinobeads Data) | IC50 (PI3 Kbeta (PI3 Kb); [11]) | IC50 (PI3 Kgamma (PI3 Kg); [12]) | Inhibition values (IC50) PI3Ka (PI3Kalpha (PI3Ka); kinobeads assay, Table 6) | IC50 (mTOR; kinobeads assay, Table 4, read-out: Inhibition values (IC50) mTor) | IC50 (PI3K delta (PI3 Kd); kinobeads assay, Table 4, read-out: Inhibition values (IC50) PI3Kd) | IC50 ([1]; kinobeads assay, Table 4, read-out: Inhibition values (IC50) DNA-PK) | IC50 (PI3Kalpha (PI3Ka); Further Kinobeads Data, read-out: PI3Ka)
CCOC(=O)N1Cc2nc(-c3ccc(NC(=O)NCCNC(C)=O)cc3)nc(N3CCOC[C@@H]3C)c2C1 [Example 124, (S)-ethyl 2-(4-(3-(2-acetamidoethyl)ureido)phenyl)-4-(3-methylmorpholino)-5H-pyrrolo[3,4-d]pyrimidine-6(7H)-carboxylate] | 0.1 to 1 µM | 1 to 10 µM | > 10 µM | 1 to 10 µM | > 10 µM | > 10 µM |  |  |  |  |  |  |  |  |  |  | 
CCNC(=O)Nc1ccc(-c2nc3c(c(N4CCOCC4)n2)CN(C(C)=O)C3)c(F)c1 [Example 161, 1-(4-(6-acetyl-4-morpholino-6,7-dihydro-5H-pyrrolo[3,4-d]pyrimidin-2-yl)-3-fluorophenyl)-3-ethylurea] |  |  |  |  |  |  | < 0.1 µM | > 10 µM | > 10 µM | D (D >10 μM) | > 10 µM | > 10 µM |  |  |  |  | 
CCOC(=O)N1Cc2nc(-c3ccc(NC(=O)NCC(=O)O)cc3)nc(N3CCOC[C@@H]3C)c2C1 [Example 115, (S)-2-(3-(4-(6-(ethoxycarbonyl)-4-(3-methylmorpholino)-6,7-dihydro-5H-pyrrolo[3,4-d]pyrimidin-2-yl)phenyl)ureido)acetic acid] | 0.1 to 1 µM | > 10 µM | > 10 µM |  | > 10 µM | > 10 µM |  |  |  |  |  |  | D (D >10 μM) |  |  |  | 
CCOC(=O)N1Cc2nc(-c3ccc(NC(=O)NCC(N)=O)cc3)nc(N3CCOC[C@@H]3C)c2C1 [Example 114, (S)-ethyl 2-(4-(3-(2-amino-2-oxoethyl)ureido)phenyl)-4-(3-methylmorpholino)-5H-pyrrolo[3,4-d]pyrimidine-6(7H)-carboxylate] | 0.1 to 1 µM | 0.1 to 1 µM | > 10 µM |  | 1 to 10 µM | 1 to 10 µM |  |  |  |  |  |  | B (B >0.1 μM < 1 μM) |  |  |  | 
CC(C)(C)OC(=O)N1Cc2nc(-c3ccc(NC(=O)NC4CC4)cc3F)nc(N3CCOCC3)c2C1 [Example 143, tert-Butyl 2-(4-(3-cyclopropylureido)-2-fluorophenyl)-4-morpholino-5H-pyrrolo[3,4-d]pyrimidine-6(7H)-carboxylate] |  |  |  |  |  |  | < 0.1 µM | > 10 µM | > 10 µM | D (D >10 μM) | > 10 µM | > 10 µM |  |  |  |  | 
CCNC(=O)Nc1c(F)cc(-c2nc3c(c(N4CCOC[C@@H]4C)n2)CN(C)C3)cc1F [Example 139, (S)-1-(2,6-difluoro-4-(6-methyl-4-(3-methylmorpholino)-6,7-dihydro-5H-pyrrolo[3,4-d]pyrimidin-2-yl)phenyl)-3-ethylurea] |  |  |  |  |  |  | 1 to 10 µM | > 10 µM | > 10 µM | D (D >10 μM) | > 10 µM | > 10 µM |  |  |  |  | 
CCNC(=O)Nc1cnc(-c2nc3c(c(N4CCOC[C@@H]4C)n2)CN(C(=O)OCC)C3)cn1 [Example 116, (S)-ethyl-2-(5-(3-ethylureido)pyrazin-2-yl)-4-(3-methylmorpholino)-5H-pyrrolo[3,4-d]pyrimidine-6(7H)-carboxylate] | 0.1 to 1 µM | > 10 µM | > 10 µM | 1 to 10 µM | > 10 µM | > 10 µM |  |  |  |  |  |  |  |  |  |  | 
CCNC(=O)Nc1ccc(-c2nc3c(c(N4CCOCC4)n2)CN(C(C)=O)C3)cc1 [Example 99, 1-(4-(6-acetyl-4-morpholino-6,7-dihydro-5H-pyrrolo[3,4-d]pyrimidin-2-yl)phenyl)-3-ethylurea] | < 0.1 µM | 1 to 10 µM | > 10 µM | 1 to 10 µM | 1 to 10 µM | > 10 µM |  |  |  |  |  |  |  |  |  |  | 
CCOC(=O)N1Cc2nc(-c3ccc(NC(=O)Nc4ccc(CO)cc4)cc3)nc(N3CCOC[C@@H]3C)c2C1 [Example 119, (S)-ethyl 2-(4-(3-(4-(hydroxymethyl)phenyl)ureido)phenyl)-4-(3-methylmorpholino)-5H-pyrrolo[3,4-d]pyrimidine-6(7H)-carboxylate] | 0.1 to 1 µM | > 10 µM | > 10 µM |  | > 10 µM | > 10 µM |  |  |  |  |  |  | D (D >10 μM) |  |  |  | 
CCNC(=O)Nc1ccc(-c2nc3c(c(N4CCOC[C@@H]4C)n2)CN(C)C3)c(F)c1F [Example 140, (S)-1-(2,3-difluoro-4-(6-methyl-4-(3-methylmorpholino)-6,7-dihydro-5H-pyrrolo[3,4-d]pyrimidin-2-yl)phenyl)-3-ethylurea] |  |  |  |  |  |  | 1 to 10 µM | > 10 µM | > 10 µM | D (D >10 μM) | > 10 µM | > 10 µM |  |  |  |  | 
CCNC(=O)Nc1ccc(-c2nc3c(c(N4CCOC[C@@H]4C)n2)CN(C(=O)C2CCNCC2)C3)cc1F [Example 126, (S)-1-ethyl-3-(2-fluoro-4-(4-(3-methylmorpholino)-6-(piperidine-4-carbonyl)-6,7-dihydro-5H-pyrrolo[3,4-d]pyrimidin-2-yl)phenyl)urea] | 0.1 to 1 µM | > 10 µM | > 10 µM |  | 1 to 10 µM | > 10 µM |  |  |  |  |  |  | D (D >10 μM) |  |  |  | 
CCOC(=O)N1Cc2nc(-c3ccc(NC(=O)NCC(=O)NC)cc3)nc(N3CCOC[C@@H]3C)c2C1 [Example 125, (S)-ethyl 2-(4-(3-(2-(methylamino)-2-oxoethyl)ureido)phenyl)-4-(3-methylmorpholino)-5H-pyrrolo[3,4-d]pyrimidine-6(7H)-carboxylate] | 0.1 to 1 µM | 0.1 to 1 µM | > 10 µM |  | 1 to 10 µM | 1 to 10 µM |  |  |  |  |  |  | B (B >0.1 μM < 1 μM) |  |  |  | 
CC(=O)N(C)CCC(=O)N1Cc2nc(-c3ccc(NC(=O)NC4CC4)cc3)nc(N3CCOC[C@@H]3C)c2C1 [Example 135, (S)—N-(3-(2-(4-(3-cyclopropylureido)phenyl)-4-(3-methylmorpholino)-5H-pyrrolo[3,4-d]pyrimidin-6(7H)-yl)-3-oxopropyl)-N-methylacetamide] | < 0.1 µM | 1 to 10 µM | > 10 µM | 1 to 10 µM | 1 to 10 µM | > 10 µM |  |  |  |  |  |  |  |  |  |  | 
C[C@H]1COCCN1c1nc(-c2ccc(NC(N)=O)cc2)nc2c1CNC2 [Example 5, (S)-1-(4-(4-(3-methylmorpholino)-6,7-dihydro-5H-pyrrolo[3,4-d]pyrimidin-2-yl)phenyl)urea] | < 0.1 µM | 1 to 10 µM | > 10 µM |  | 1 to 10 µM | 0.1 to 1 µM |  |  |  |  |  |  | B (B >0.1 μM < 1 μM) | < 0.1 µM | 1 to 10 µM | > 10 µM | 
C[C@H]1COCCN1c1nc(-c2ccc(NC(=O)NC3CC3)cc2F)nc2c1CNC2 [Example 149, (S)-1-(Cyclopropyl)-3-(3-fluoro-4-(4-(3-methylmorpholino)-6,7-dihydro-5H-pyrrolo[3,4-d]pyrimidin-2-yl)phenyl)urea hydrochloride] |  |  |  |  |  |  | 0.1 to 1 µM | > 10 µM | > 10 µM |  | > 10 µM | > 10 µM |  |  |  |  | 1 to 10 µM
CC(=O)N1Cc2nc(-c3ccc(NC(=O)NC4CC4)cc3F)nc(N3CCOCC3)c2C1 [Example 166, 1-(4-(6-Acetyl-4-morpholino-6,7-dihydro-5H-pyrrolo[3,4-d]pyrimidin-2-yl)-3-fluorophenyl)-3-cyclopropylurea] |  |  |  |  |  |  | < 0.1 µM | > 10 µM | > 10 µM | D (D >10 μM) | > 10 µM | > 10 µM |  |  |  |  | 
CCNC(=O)Nc1ccc(-c2nc3c(c(N4CCOC[C@@H]4C)n2)CCN(C)C3)c(C)c1 [Example 109, (S)-1-ethyl-3-(3-methyl-4-(7-methyl-4-(3-methylmorpholino)-5,6,7,8-tetrahydropyrido[3,4-d]pyrimidin-2-yl)phenyl)urea] | 0.1 to 1 µM | > 10 µM | > 10 µM |  | > 10 µM | > 10 µM |  |  |  |  |  |  | D (D >10 μM) |  |  |  | 
CCNC(=O)Nc1ccc(-c2nc3c(c(N4CCOC[C@@H]4C)n2)CN(C(=O)CCN(C)C)CC3)cc1 [Example 92, (S)-1-(4-(6-(3-(dimethylamino)propanoyl)-4-(3-methylmorpholino)-5,6,7,8-tetrahydropyrido[4,3-d]pyrimidin-2-yl)phenyl)-3-ethylurea] | 0.1 to 1 µM | > 10 µM | > 10 µM |  | > 10 µM | > 10 µM |  |  |  |  |  |  | D (D >10 μM) |  |  |  | 
